Assay [1] deals with T1, Cbl-b (Homo sapiens, UniProt Q13191). In words: Cbl-b activity assay (Cbl-b inhibition assay), TR-FRET of Cbl-b interaction with UbcH5B-Ub. Format: biochemical. As to conditions: assay buffer with 100 mM NaCl, 60 nM Src kinase; read-out: Cbl-b activity IC50. The gist of the method: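 TR-FRET readout of Cbl-b binding to Bodipy-fluorescein N-terminally labeled Ub conjugated to UbcH5B C85K, measured with compound present. After compound incubation, 60 nM Src kinase with 1 mM ATP and 5 mM MgCl2 (final) was added for 1.5 h, then a further 1 h incubation; asterisked values used 50 mM NaCl buffer and 30 nM Src.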
T1 sequence (Q13191 36-427): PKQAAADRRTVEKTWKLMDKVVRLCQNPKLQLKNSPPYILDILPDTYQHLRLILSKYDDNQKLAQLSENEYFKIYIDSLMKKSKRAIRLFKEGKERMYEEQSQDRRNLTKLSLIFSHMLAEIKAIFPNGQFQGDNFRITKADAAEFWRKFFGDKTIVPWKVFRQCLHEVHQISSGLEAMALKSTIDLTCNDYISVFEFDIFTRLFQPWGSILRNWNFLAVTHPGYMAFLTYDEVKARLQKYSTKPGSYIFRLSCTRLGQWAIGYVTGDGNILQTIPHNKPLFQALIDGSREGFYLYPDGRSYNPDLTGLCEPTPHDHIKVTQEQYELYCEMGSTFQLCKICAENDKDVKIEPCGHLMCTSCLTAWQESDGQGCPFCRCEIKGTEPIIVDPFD

The subject of assay [2] is T-cell. The assay is described as follows: CD25 cell surface staining on T-cells co-stimulated with anti-CD3 and anti-CD28 antibody (Biological Example 2). It is filed as cell-based, human. The conditions noted are these: Homo sapiens, T-cell, primary human total T-cells, baseline = anti-CD3/anti-CD28 stimulated cells without inhibitor, read-out: CD25 staining, Anti-CD3/Anti-CD28 stimulation, fold change over baseline; for fold induction at 0.3 µM: 0.3 μM compound; for fold induction at 1 µM: 1 μM compound. The essentials:
(§1)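 No assay protocol given; T-cells stimulated with anti-CD3 alone or anti-CD3 plus anti-CD28, with or without Cbl-b inhibitor. Activation read as IL-2 secretion or CD25 surface staining, expressed as fold over baseline from uninhibited cells […].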

Assay [3] concerns the target T1, Cbl-b. In words: Cbl-b inhibition assay (Cbl-b activity assay, FRET, Biological Example 1; 100 mM NaCl, 60 nM Src kinase). Format: biochemical. As to conditions: upper bound stated in text lists; read-out: IC50 values in the Cbl-b inhibition assay of Biological Example 1. The gist of the method: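 Binding-based Cbl-b activity assay. Src-phosphorylated, N-terminally biotin-Avi-tagged Cbl-b recruits labelled UbcH5B-Ub, and proximity to streptavidin-terbium yields FRET.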

For assay [4], the system named is T-cell. In words: CD25 cell surface staining on T-cells stimulated with anti-CD3 antibody alone (Biological Example 2). Format: cell-based. The conditions noted are these: 1 μM compound, primary human total T-cells, baseline = anti-CD3/anti-CD28 stimulated cells without inhibitor, read-out: CD25 staining, Anti-CD3 stimulation, fold change over baseline.
The subject of assay [5] is T-cell. The assay is described as follows: IL-2 secretion from T-cells stimulated with anti-CD3 antibody alone (Biological Example 2). Format: cell-based. As to conditions: 1 μM compound, primary human total T-cells, read-out: IL-2 secretion, Anti-CD3 stimulation, fold change over baseline.
Assay [6] has as its system T-cell. The assay is described as follows: IL-2 secretion from T-cells co-stimulated with anti-CD3 and anti-CD28 antibody (Biological Example 2). It is filed as cell-based, human. As to conditions: Homo sapiens, T-cell, primary human total T-cells, baseline = anti-CD3/anti-CD28 stimulated cells without inhibitor, read-out: IL-2 secretion, Anti-CD3/Anti-CD28 stimulation, fold change over baseline; for fold induction at 0.3 µM: 0.3 μM compound; for fold induction at 1 µM: 1 μM compound. The essentials: as §1

SMILES strings stand for the structures. Some results are limits rather than exact numbers.

The IC50 is the point on the concentration scale where inhibition reaches its midpoint.

In the case of `Cn1cnnc1CC1(c2cccc(N3Cc4c(cc(CN5CC(F)C5(C)C)cc4C(F)(F)F)C3=O)c2)COC1` (stereo not shown) [Compound 536, 6-((3-fluoro-2,2-dimethylazetidin-1-yl)methyl)-2-(3-(3-((4-methyl-4H-1,2,4-triazol-3-yl)methyl)oxetan-3-yl)phenyl)-4-(trifluoromethyl)isoindolin-1-one], the IC50 was below 100 nM at Cbl-b [1] and at most 100 nM at Cbl-b [3]. The values for the fold induction at 0.3 µM in the assay on T-cell [2] and in the assay with T-cell [6] were 1.31 to 1.5 and 2.51 to 5, respectively. For the same compound, the fold induction at 1 µM in the assay on T-cell [2] is 1.31 to 1.5; in the assay with T-cell [4], above 1; in the assay on T-cell [5], 0.101 to 0.15; in the assay with T-cell [6], 5 to 7.5.
With `CC(c1cc(C(=O)Nc2cccc(C3(Cc4nncn4C)COC3)c2)nc(C2CC2)n1)N1CC(F)C1` (stereo not shown) [Compound 538, 2-cyclopropyl-6-(1-(3-fluoroazetidin-1-yl)ethyl)-N-(3-(3-((4-methyl-4H-1,2,4-triazol-3-yl)methyl)oxetan-3-yl)phenyl)pyrimidine-4-carboxamide], the IC50 at Cbl-b [1] was below 100 nM; at Cbl-b [3], at most 100 nM. Further, the fold induction at 0.3 µM with T-cell [2] was 1.01 to 1.3; in the assay with T-cell [6] it was 1.01 to 2.5. For the same compound, the fold induction at 1 µM in the assay on T-cell [2] was in the range of 1.31 to 1.5; in the assay with T-cell [4], 0.801 to 1; in the assay on T-cell [5], 0.101 to 0.15; with T-cell [6] it was 2.51 to 5.
With `CC(O)c1cc2c(c(C(F)(F)F)c1)CN(c1cccc(C3(Cc4nncn4C)COC3)c1)C2=O` (stereo not drawn) [Compound 540, 6-(l-hydroxyethyl)-2-(3-(3-((4-methyl-4H-1,2,4-triazol-3-yl)methyl)oxetan-3-yl)phenyl)-4-(trifluoromethyl)isoindolin-1-one], the IC50 on Cbl-b [1] was below 100 nM; at Cbl-b [3] it was at most 100 nM. Also, the fold induction at 0.3 µM was 1.01 to 1.3 in the assay with T-cell [2] and 1.01 to 2.5 in the assay with T-cell [6]. In addition, the fold induction at 1 µM was 1.01 to 1.3 with T-cell [2], above 1 with T-cell [4], 0.151 to 0.2 with T-cell [5] and 2.51 to 5 with T-cell [6].
As to `C[C@H](c1cc2c(c(C(F)(F)F)c1)CN(c1cccc(C3(Cc4nncn4C)COC3)c1)C2=O)N1C[C@H]2C[C@H]2C1` [Compound 541b, 6-((1R)-1-(3-azabicyclo[3.1.0]hexan-3-yl)ethyl)-2-(3-(3-((4-methyl-4H-1,2,4-triazol-3-yl)methyl)oxetan-3-yl)phenyl)-4-(trifluoromethyl)isoindolin-1-one], the IC50 was below 100 nM on Cbl-b [1] and at most 100 nM at Cbl-b [3]. The fold induction at 0.3 µM is 1.31 to 1.5 in the assay with T-cell [2] and above 7.5 in the assay on T-cell [6]. Also, the fold induction at 1 µM with T-cell [2] was 1.31 to 1.5; in the assay with T-cell [4], above 1; in the assay on T-cell [5], above 0.201; in the assay on T-cell [6], above 7.5.
As to `C[C@@H](c1cc2c(c(C(F)(F)F)c1)CN(c1cccc(C3(Cc4nncn4C)COC3)c1)C2=O)N1CC(C)(F)C1` [Compound 543a, (S)-6-(1-(3-fluoro-3-methylazetidin-1-yl)ethyl)-2-(3-(3-((4-methyl-4H-1,2,4-triazol-3-yl)methyl)oxetan-3-yl)phenyl)-4-(trifluoromethyl)isoindolin-1-one], the IC50 on Cbl-b [1] is below 100 nM; at Cbl-b [3] it was at most 100 nM. Moreover, the fold induction at 0.3 µM in the assay with T-cell [2] was in the range of 1.31 to 1.5; in the assay with T-cell [6] it was 2.51 to 5. The fold induction at 1 µM with T-cell [2] is 1.51 to 1.75; in the assay with T-cell [4], above 1; in the assay with T-cell [5] it was above 0.201; with T-cell [6], above 7.5.
For the compound `C[C@H](c1cc2c(c(C(F)(F)F)c1)CN(c1cccc(C3(Cc4nncn4C)COC3)c1)C2=O)N1CC(C)(F)C1` [Compound 543b, (R)-6-(1-(3-fluoro-3-methylazetidin-1-yl)ethyl)-2-(3-(3-((4-methyl-4H-1,2,4-triazol-3-yl)methyl)oxetan-3-yl)phenyl)-4-(trifluoromethyl)isoindolin-1-one], the IC50 was below 100 nM at Cbl-b [1] and at most 100 nM at Cbl-b [3]. In addition, the values for the fold induction at 0.3 µM in the assay on T-cell [2] and in the assay with T-cell [6] were 1.51 to 1.75 and 5 to 7.5, respectively. Further, the fold induction at 1 µM in the assay with T-cell [2] was 1.51 to 1.75; with T-cell [4], above 1; with T-cell [5] it was above 0.201; with T-cell [6], above 7.5.
For the compound `Cn1cnnc1CC1(c2cccc(N3Cc4c(cc(C(F)(F)C(=O)O)cc4C(F)(F)F)C3=O)c2)COC1` [Example 544, 2,2-difluoro-2-(2-(3-(3-((4-methyl-4H-1,2,4-triazol-3-yl)methyl)oxetan-3-yl)phenyl)-3-oxo-7-(trifluoromethyl)isoindolin-5-yl)acetic acid], the IC50 at Cbl-b [1] was 301 to 1000 nM; at Cbl-b [3], at most 1000 nM. For the same compound, the fold induction at 0.3 µM in the assay with T-cell [2] fell in the range of 1.01 to 1.3; in the assay with T-cell [6] it was 1.01 to 2.5. Besides, the fold induction at 1 µM with T-cell [2] was 1.01 to 1.3; in the assay with T-cell [4] it was 0.601 to 0.8; with T-cell [5], below 0.05; in the assay with T-cell [6] it was 1.01 to 2.5.
For the compound `CC[C@@H](c1cc2c(c(C(F)(F)F)c1)CN(c1cccc(C3(Cc4nncn4C)COC3)c1)C2=O)N1CC[C@H](F)C1` [Example 545, 6-((S)-1-((S)-3-fluoropyrrolidin-1-yl)propyl)-2-(3-(3-((4-methyl-4H-1,2,4-triazol-3-yl)methyl)oxetan-3-yl)phenyl)-4-(trifluoromethyl)isoindolin-1-one], the IC50 on Cbl-b [1] is below 100 nM; on Cbl-b [3] it was at most 100 nM. Besides, the results for the fold induction at 0.3 µM with T-cell [2] and in the assay with T-cell [6] were 1.51 to 1.75 and above 7.5, respectively. The fold induction at 1 µM was 1.51 to 1.75 in the assay on T-cell [2], above 1 in the assay with T-cell [4], above 0.201 in the assay on T-cell [5] and above 7.5 in the assay with T-cell [6].
On to `CC[C@H](c1cc2c(c(C(F)(F)F)c1)CN(c1cccc(C3(Cc4nncn4C)COC3)c1)C2=O)N1CC[C@H](F)C1` [Example 546, 6-((R)-1-((S)-3-fluoropyrrolidin-1-yl)propyl)-2-(3-(3-((4-methyl-4H-1,2,4-triazol-3-yl)methyl)oxetan-3-yl)phenyl)-4-(trifluoromethyl)isoindolin-1-one], for which the IC50 on Cbl-b [1] is below 100 nM; on Cbl-b [3], at most 100 nM. Besides, the fold induction at 0.3 µM in the assay on T-cell [2] is 1.51 to 1.75; with T-cell [6] it was above 7.5. Moreover, the fold induction at 1 µM in the assay on T-cell [2] is 1.51 to 1.75; in the assay with T-cell [4], above 1; in the assay on T-cell [5] it was above 0.201; with T-cell [6], above 7.5.
For `Cn1cnnc1CC1(c2cccc(N3Cc4c(cc(C(F)(F)CO)cc4C(F)(F)F)C3=O)c2)COC1` [Example 547, 6-(1,1-difluoro-2-hydroxyethyl)-2-(3-(3-((4-methyl-4H-1,2,4-triazol-3-yl)methyl)oxetan-3-yl)phenyl)-4-(trifluoromethyl)isoindolin-1-one], the IC50 is below 100 nM at Cbl-b [1] and at most 100 nM on Cbl-b [3]. In addition, the fold induction at 0.3 µM in the assay with T-cell [2] was in the range of 1.01 to 1.3; in the assay with T-cell [6], 1.01 to 2.5. In addition, the fold induction at 1 µM in the assay on T-cell [2] is 1.01 to 1.3; in the assay with T-cell [4], 0.801 to 1; with T-cell [5], 0.101 to 0.15; with T-cell [6], 1.01 to 2.5.
As to `CN(c1cc2c(c(C(F)(F)F)c1)CN(c1cccc([C@@](C)(F)C(F)(F)c3nncn3C)c1)C2=O)[C@@H]1CNC[C@@H]1F` [Example 548, 6-(((3R,4S)-4-fluoropyrrolidin-3-yl)(methyl)amino)-2-(3-((R)-1,1,2-trifluoro-1-(4-methyl-4H-1,2,4-triazol-3-yl)propan-2-yl)phenyl)-4-(trifluoro-methyl)isoindolin-1-one], the IC50 at Cbl-b [1] is 100 to 300 nM; on Cbl-b [3] it was at most 300 nM. For the same compound, the fold induction at 0.3 µM in the assay with T-cell [2] fell in the range of 1.01 to 1.3; in the assay with T-cell [6], 1.01 to 2.5. Moreover, the fold induction at 1 µM with T-cell [2] lay in the range of 1.01 to 1.3; in the assay with T-cell [4], 0.601 to 0.8; with T-cell [5], 0.101 to 0.15; with T-cell [6], 2.51 to 5.

For the origin of these results see patent US20220324835A1 (Nurix Therapeutics, Inc., priority 2018, published 2022).
